From patent US9416154B2, “5′-substituted nucleoside derivatives and methods of use thereof for the treatment of viral diseases” (priority 2011, dated 2016)
Where two headings read alike, the source gives them in different places.

What was measured:
[1] = tested on: Huh 7 hepatoma cells containing the subgenomic HCV replicon; experiment: Cytotoxicity (MTS assay or GAPDH RNA readout); type: cell-based
Method: (§1) The effect of the nucleoside derivatives on the proliferation and metabolism of Huh 7 hepatoma cells containing the subgenomic HCV replicon was measured using the MTS assay. Briefly, cells were seeded and dosed with compounds exactly as described in Example 13 above, for replicon EC50 determination. After a 3-day compound incubation period, the MTS assay was performed in accordance with the manufacturer's protocol for the CellTiter 96 Aqueous One Solution Cell Proliferation Assay (Promega, Catalog #G358). Alternatively, after a 3-day compound incubation, the amount of glyceraldehyde-3-phosphate dehydrogenase (GAPDH) RNA in replicon-containing Huh 7 cells was determined using qRT-PCR. CC50 values were derived from 10 serial 2-fold dilutions of the inhibitor in duplicate that yielded 50% inhibition of the MTS or GAPDH RNA readout by comparison with cells treated with vehicle control.

HCV replicon (1b) = experiment: Cell-based HCV replicon assay
Method: To measure cell-based anti-HCV activity of selected compounds of the present invention, replicon cells were seeded at 5000 cells/well in 96-well collagen I-coated Nunc plates in the presence of the test compound. Various concentrations of test compound, typically in 10 serial 2-fold dilutions, were added to the assay mixture, with the starting concentration ranging from 250 μM to 1 μM. The final concentration of dimethylsulfoxide was 0.5%, fetal bovine serum was 5%, in the assay media. Cells were harvested on day 3 by the addition of 1× cell lysis buffer (Ambion cat #8721). The replicon RNA level was measured using real time PCR (Taqman assay). The amplicon was located in 5B. The PCR primers were: 5B.2F, ATGGACAGGCGCCCTGA (SEQ ID. NO. 1); 5B.2R, […] (SEQ ID. NO. 2); the probe sequence was FAM-labeled CACGCCATGCGCTGCGG (SEQ ID. NO. 3). GAPDH RNA was used as endogenous control and was amplified in the same reaction as NS5B (multiplex PCR) using primers and VIC-labeled probe recommended by the manufacturer (PE Applied Biosystem). The real-time RT-PCR reactions were run on ABI PRISM 7900HT Sequence Detection System using the following program: 48° C. for 30 minutes, 95° C. for 10 minutes, 40 cycles of 95° C. for 15 sec, 60° C. for 1 minute. The ΔCT values (CT5B-CTGAPDH) were plotted against the concentration of test compound and fitted to the sigmoid dose-response model using XLfit4 (MDL). EC50 was defined as the concentration of inhibitor necessary to achieve ΔCT=1 over the projected baseline; EC90 the concentration necessary to achieve ΔCT=3.2 over the baseline. Alternatively, to quantitate the absolute amount of replicon RNA, a standard curve was established by including serially diluted T7 transcripts of replicon RNA in the Taqman assay. All Taqman reagents were from PE Applied Biosystems. Such an assay procedure was described in detail in e.g. Malcolm et al., Antimicrobial Agents and Chemotherapy 50: 1013-1020 (2006).

[2] = Cytotoxicity (MTS assay or GAPDH RNA readout); type: cell-based; conditions: human, replicon-containing Huh 7 cells, 3-day incubation, MTS or GAPDH RNA readout; read-out: 1b CC50
Method: as §1

[3] = replicon cells, 3-day incubation, replicon RNA by real time PCR (Taqman), read-out: 1b EC50
[4] = replicon-containing Huh 7 cells, 3-day incubation, MTS or GAPDH RNA readout, read-out: 1b CC50
[5] = Hepatitis C virus, 72 h, replicon cells, 3-day incubation, replicon RNA by real time PCR (Taqman), read-out: 1b EC50
[6] = Hepatitis C virus, 72 h, read-out: 1b EC50, replicon cells, 3-day incubation, replicon RNA by real time PCR (Taqman)

SMILES	CC50 at 3 day [2] [µM]	EC50 (HCV replicon (1b); [6]) [µM]	also measured
C[C@@H](O)[C@H]1O[C@@H](n2ccc3c(N)ncnc32)[C@](C)(O)[C@@H]1O [Compound 1]	–	–	CC50 [1]: 78 µM; EC50 (HCV replicon (1b); [3]): 61 µM
CCCCOC(=O)[C@H](C)NP(=O)(Oc1cccc2ccccc12)O[C@H](C)[C@H]1O[C@@H](n2ccc3c(N)ncnc32)[C@](C)(O)[C@@H]1O (some centres unmarked) [Compound 2]	–	–	CC50 [1, 4]: 44 µM; EC50 (HCV replicon (1b); [3]): 33 µM
C[C@@H](O)[C@H]1O[C@@H](n2cc(F)c3c(N)ncnc32)[C@](C)(O)[C@@H]1O [Compound 3]	> 100	–	EC50 (HCV replicon (1b); [5]): > 100 µM
CCCCOC(=O)[C@H](C)NP(=O)(Oc1cccc2ccccc12)O[C@H](C)[C@H]1O[C@@H](n2cc(F)c3c(N)ncnc32)[C@](C)(O)[C@@H]1O (some centres unmarked) [Compound 4]	84	> 100	–
CC[C@@H](O)[C@H]1O[C@@H](n2cc(F)c3c(N)ncnc32)[C@](C)(O)[C@@H]1O [Compound 5]	24	–	EC50 (HCV replicon (1b); [5]): 23 µM
CCCCOC(=O)[C@H](C)NP(=O)(Oc1cccc2ccccc12)O[C@H](CC)[C@H]1O[C@@H](n2cc(F)c3c(N)ncnc32)[C@](C)(O)[C@@H]1O (some centres unmarked) [Compound 6]	5.7	9.3	–
CC[C@@H](O)[C@H]1O[C@@H](n2ccc3c(N)ncnc32)[C@](C)(O)[C@@H]1O [Compound 7]	> 100	–	EC50 (HCV replicon (1b); [5]): > 100 µM
CCCCOC(=O)[C@H](C)NP(=O)(Oc1cccc2ccccc12)O[C@H](CC)[C@H]1O[C@@H](n2ccc3c(N)ncnc32)[C@](C)(O)[C@@H]1O (some centres unmarked) [Compound 8]	30	13	–
C[C@H](O)[C@H]1O[C@@H](n2cc(F)c3c(N)ncnc32)[C@](C)(O)[C@@H]1O [Compound 9]	–	–	CC50 [1]: > 100 µM; EC50 (HCV replicon (1b); [3]): > 100 µM
CC[C@@H](OP(=O)(N[C@@H](C)C(=O)OC)Oc1ccccc1)[C@H]1O[C@@H](n2cc(F)c3c(N)ncnc32)[C@](C)(O)[C@@H]1O (some centres unmarked) [Compound 10]	20	15	–
COC(=O)[C@H](C)NP(=O)(Oc1ccccc1)O[C@H](C)[C@H]1O[C@@H](n2cc(F)c3c(N)ncnc32)[C@](C)(O)[C@@H]1O (some centres unmarked) [Compound 11]	> 100	37	–
COC(=O)[C@H](C)NP(=O)(Oc1ccccc1)O[C@@H](C)[C@H]1O[C@@H](n2cc(F)c3c(N)ncnc32)[C@](C)(O)[C@@H]1O (some centres unmarked) [Compound 12]	> 100	39	–
CC(O)[C@H]1O[C@@H](n2cc(I)c3c(N)ncnc32)[C@](C)(F)[C@@H]1O (some centres unmarked) [Compound 13]	–	–	CC50 [1]: 30 µM; EC50 (HCV replicon (1b); [3]): 58 µM
CC(O)[C@H]1O[C@@H](n2ccc3c(N)ncnc32)[C@](C)(F)[C@@H]1O (some centres unmarked) [Compound 14]	> 100	–	EC50 (HCV replicon (1b); [5]): > 100 µM
CCOC(=O)[C@H](C)NP(=O)(Oc1ccccc1)OC(C)[C@H]1O[C@@H](n2ccc3c(N)ncnc32)[C@](C)(F)[C@@H]1O (some centres unmarked) [Compound 16]	–	–	CC50 [1]: > 100 µM; EC50 (HCV replicon (1b); [3]): > 100 µM
CC(C)OC(=O)[C@H](C)NP(=O)(Oc1ccccc1)OC(C)[C@H]1O[C@@H](n2ccc3c(N)ncnc32)[C@](C)(F)[C@@H]1O (some centres unmarked) [Compound 17]	> 100	> 100	–
CCOC(=O)[C@H](C)NP(=O)(Oc1cccc2ccccc12)OC(C)[C@H]1O[C@@H](n2ccc3c(N)ncnc32)[C@](C)(F)[C@@H]1O (some centres unmarked) [Compound 18]	> 100	> 100	–

SMILES	CC50 at 3 day [2] [µM]	EC50 (HCV replicon (1b); [6]) [µM]	also measured
CC(C)OC(=O)[C@H](C)NP(=O)(Oc1cccc2ccccc12)OC(C)[C@H]1O[C@@H](n2ccc3c(N)ncnc32)[C@](C)(F)[C@@H]1O (some centres unmarked) [Compound 19]	> 20	> 20	–
CCOC(=O)[C@H](C)NP(=O)(Oc1ccc(Cl)cc1)OC(C)[C@H]1O[C@@H](n2ccc3c(N)ncnc32)[C@](C)(F)[C@@H]1O (some centres unmarked) [Compound 20]	> 100	> 100	–
CC(C)OC(=O)[C@H](C)NP(=O)(Oc1ccc(Cl)cc1)OC(C)[C@H]1O[C@@H](n2ccc3c(N)ncnc32)[C@](C)(F)[C@@H]1O (some centres unmarked) [Compound 21]	> 100	> 100	–
CCOC(=O)[C@H](C)NP(=O)(Oc1ccccc1Cl)OC(C)[C@H]1O[C@@H](n2ccc3c(N)ncnc32)[C@](C)(F)[C@@H]1O (some centres unmarked) [Compound 22]	> 100	> 100	–
CC(C)OC(=O)[C@H](C)NP(=O)(Oc1ccccc1Cl)OC(C)[C@H]1O[C@@H](n2ccc3c(N)ncnc32)[C@](C)(F)[C@@H]1O (some centres unmarked) [Compound 23]	> 100	> 100	–
CC(O)C1O[C@@H](n2cc(F)c3c(N)ncnc32)[C@](C)(F)[C@@H]1O (some centres unmarked) [Compound 24]	–	–	CC50 [1, 4]: > 100 µM; EC50 (HCV replicon (1b); [3]): > 100 µM
CC(C)OC(=O)[C@H](C)NP(=O)(Oc1cccc2ccccc12)OC(C)(C)[C@H]1O[C@@H](n2ccc3c(N)ncnc32)[C@](C)(F)[C@@H]1O (some centres unmarked) [Compound 32]	> 20	> 20	–
CC(O)[C@H]1O[C@@H](n2cc(-c3cc[nH]n3)c3c(N)ncnc32)[C@](C)(F)[C@@H]1O (some centres unmarked) [Compound 33]	> 100	–	EC50 (HCV replicon (1b); [5]): > 100 µM
COC(=O)[C@H](C)NP(=O)(Oc1ccccc1)O[C@H](C)[C@H]1O[C@@H](n2ccc3c(N)ncnc32)[C@](C)(O)[C@@H]1O (some centres unmarked) [Compound 34]	> 100	> 100	–
COC(=O)[C@H](C)NP(=O)(Oc1ccccc1)O[C@@H](C)[C@H]1O[C@@H](n2ccc3c(N)ncnc32)[C@](C)(O)[C@@H]1O (some centres unmarked) [Compound 35]	> 100	> 100	–
CCOC(=O)[C@H](C)NP(=O)(Oc1ccccc1)O[C@H](C)[C@H]1O[C@@H](n2ccc3c(N)ncnc32)[C@](C)(O)[C@@H]1O (some centres unmarked) [Compound 38]	> 100	> 100	–
CCOC(=O)[C@H](C)NP(=O)(Oc1ccccc1)O[C@@H](C)[C@H]1O[C@@H](n2ccc3c(N)ncnc32)[C@](C)(O)[C@@H]1O (some centres unmarked) [Compound 39]	> 100	> 100	–
COC(=O)[C@H](C)NP(=O)(Oc1ccccc1)OC(C)[C@H]1O[C@@H](n2ccc3c(N)ncnc32)[C@](C)(O)[C@@H]1O (some centres unmarked) [Compound 40]	> 100	21	–
CC(OP(=O)(N[C@@H](C)C(=O)OCC(C)(C)C)Oc1ccccc1)[C@H]1O[C@@H](n2ccc3c(N)ncnc32)[C@](C)(O)[C@@H]1O (some centres unmarked) [Compound 41]	> 100	18	–
COC(=O)[C@H](C)NP(=O)(Oc1cccc2ccccc12)OC(C)[C@H]1O[C@@H](n2ccc3c(N)ncnc32)[C@](C)(O)[C@@H]1O (some centres unmarked) [Compound 42]	> 100	4.8	–
CC(C)OC(=O)[C@H](C)NP(=O)(Oc1ccccc1)OC(C)[C@H]1O[C@@H](n2ccc3c(N)ncnc32)[C@](C)(O)[C@@H]1O (some centres unmarked) [Compound 43]	98	14	–
CCCCOC(=O)[C@H](C)NP(=O)(Oc1cccc2ccccc12)OC(C)[C@H]1O[C@@H](n2ccc3c(N)ncnc32)[C@](C)(O)[C@@H]1O (some centres unmarked) [Compound 44]	51	–	EC50 (HCV replicon (1b); read-out: 1b EC50, replicon cells, 3-day incubation, replicon RNA by real time PCR (Taqman)): 2 µM
